# In patent EP4559461A1, “DUAL NLRP1 AND NLRP3 INHIBITORS FOR USE AS A MEDICAMENT” (Servicio Andaluz de Salud, priority 2023, dated 2025):
# Read-outs that look alike come from different tables or passages of the source.
# Columns and labels:
# [1] = ageing mouse model (age-related metabolic dysfunction); format: in vivo, C57BL/6J mice
# Protocol: (§1) For a better characterization of the effect of C3, the inventors determined its effect in two in vivo models: ageing mice (to evaluate the effect in age-related metabolic dysfunction), and ovarian aging mice (to evaluate the effect in infertility because of ovarian aging).
# 18-month-old C57BL/6J mice were treated with C3 (10 mg/Kg/day i.p.) or with a vehicle solution (saline) for over 4 weeks.
# NLRP3 = molecular target: T1, NLRP3 (Homo sapiens, UniProt Q96P20); experiment: in vitro model of NLRP3 induction (LPS + ATP) in PMA-differentiated THP-1 macrophages, protein expression by western blot; format: cell-based
# T1 construct: the THP-1 cell line (monocytes) was used and differentiated into macrophages; endogenous in cells; host or cells: THP-1 monocytes differentiated into macrophages with PMA
# Protocol: (§2) For biological assays, the THP-1 cell line (monocytes) was used and differentiated into macrophages using phorbol-12-myristate-13-acetate (PMA). They were then stimulated with 200 ng/mL ultrapure LPS for 4 hours, minus the negative control condition, to activate NLRP3 expression. At the same time, the necessary volume of the starting stock of each compound to be tested was added to reach the test concentration. After 4 h incubation at 37 °C, 5 mM ATP was added […] and incubated for 30 min to activate NLRP3 assembly. For NLRP1 activation, Valboropro, a specific inducer of this protein was used at 1µM for 24 hours. Protein expression levels were studied by western blot as a proteomic study and inflammation levels by determination of cytokines released into the medium by immunoassay techniques (ELISA).
# (§3) The inventors of the present invention evaluated the inhibitory effects of compound C3 in an in vitro model of NLRP3 induction (LPS + ATP), and in an […] model of NLRP1 induction (ValboroPro or Vbp).
# NLRP1 = molecular target: T2, NLRP1 (Homo sapiens, UniProt Q9C000); experiment: in vitro model of NLRP1 induction (ValboroPro) in THP-1 macrophages, protein expression by western blot; format: cell-based; details: ValboroPro (Vbp) induction; dose-dependent; Figure 3
# T2 construct: the THP-1 cell line (monocytes) was used and differentiated into macrophages; endogenous in cells; host or cells: THP-1 monocytes differentiated into macrophages with PMA
# T2 sequence (Q9C000 1-1473): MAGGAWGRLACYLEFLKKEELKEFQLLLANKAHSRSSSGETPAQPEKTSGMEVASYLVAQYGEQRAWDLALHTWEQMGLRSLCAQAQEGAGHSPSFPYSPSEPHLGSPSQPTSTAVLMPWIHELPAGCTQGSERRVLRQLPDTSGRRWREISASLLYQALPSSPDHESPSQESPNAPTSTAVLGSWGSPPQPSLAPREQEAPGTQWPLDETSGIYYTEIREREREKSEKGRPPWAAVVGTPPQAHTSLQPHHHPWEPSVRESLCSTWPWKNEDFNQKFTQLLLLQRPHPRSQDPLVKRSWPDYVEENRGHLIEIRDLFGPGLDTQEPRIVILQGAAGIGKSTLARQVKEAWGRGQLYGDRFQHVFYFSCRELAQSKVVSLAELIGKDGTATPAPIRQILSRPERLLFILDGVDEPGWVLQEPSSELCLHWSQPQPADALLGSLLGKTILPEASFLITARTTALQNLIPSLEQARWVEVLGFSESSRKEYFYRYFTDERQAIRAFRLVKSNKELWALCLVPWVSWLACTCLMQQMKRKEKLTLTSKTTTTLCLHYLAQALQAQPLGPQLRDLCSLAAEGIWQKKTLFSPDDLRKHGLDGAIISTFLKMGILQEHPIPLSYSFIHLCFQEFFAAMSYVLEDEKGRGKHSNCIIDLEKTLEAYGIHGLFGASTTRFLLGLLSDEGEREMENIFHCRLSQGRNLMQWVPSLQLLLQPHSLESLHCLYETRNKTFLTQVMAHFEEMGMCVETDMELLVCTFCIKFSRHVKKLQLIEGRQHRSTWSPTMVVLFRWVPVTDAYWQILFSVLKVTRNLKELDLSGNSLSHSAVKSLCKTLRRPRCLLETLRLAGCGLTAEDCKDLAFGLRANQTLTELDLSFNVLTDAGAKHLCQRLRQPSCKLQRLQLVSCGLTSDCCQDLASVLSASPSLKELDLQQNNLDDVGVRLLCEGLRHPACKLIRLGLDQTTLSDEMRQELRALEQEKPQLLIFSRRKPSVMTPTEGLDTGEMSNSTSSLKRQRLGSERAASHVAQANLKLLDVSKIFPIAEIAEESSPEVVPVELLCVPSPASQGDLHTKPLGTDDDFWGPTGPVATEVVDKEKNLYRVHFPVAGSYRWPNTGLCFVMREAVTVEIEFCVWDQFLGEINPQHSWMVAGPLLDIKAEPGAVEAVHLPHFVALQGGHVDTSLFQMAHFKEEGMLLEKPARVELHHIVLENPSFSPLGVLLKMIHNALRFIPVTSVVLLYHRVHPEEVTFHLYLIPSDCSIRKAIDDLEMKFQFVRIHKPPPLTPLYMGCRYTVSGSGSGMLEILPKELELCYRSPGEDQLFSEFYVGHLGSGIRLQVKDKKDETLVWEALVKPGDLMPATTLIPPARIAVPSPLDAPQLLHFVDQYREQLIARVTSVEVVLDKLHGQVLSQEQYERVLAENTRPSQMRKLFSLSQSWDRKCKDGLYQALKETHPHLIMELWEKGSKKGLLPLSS
# Protocol: as §2, §3
# THP-1 cell line = experiment: in vitro toxicity (cell viability); format: cell-based; details: regardless of the dose tested; Figure 6
# [2] = system: AIM-2, NLRP2, NLRC3 or NLRC4; experiment: expression of other inflammasome proteins (western blot, Figure 5); format: cell-based
# Protocol: as §2
# This is reflected by the increased ability of C3 to inhibit the expression of NLRP1, NLRP3, IL-1β and IL-18 compared to MCC950 and C5 (Figure 5 and Figure 8).
# NLRP3 inflammasome = experiment: cytokines released into the culture medium after LPS+ATP activation (ELISA); format: cell-based; details: for IC50: estimated inhibitory capacity; for IL-1β cytokine release: in vitro treatment, Figure 9
# Protocol: as §2
# NEK7 to NLRP3 = molecular target: T3, NEK7 to NLRP3 (Homo sapiens, UniProt Q96P20); experiment: NEK7 co-immunoprecipitation; format: binding; details: Figure 7
# T3 construct: For biological assays, the THP-1 cell line (monocytes) was used; endogenous in cells
# From the text: One of the possible mechanisms for NLRP3 inhibition is the inhibition of its binding to NEK7, since it has been shown that NEK7 interacts with NLRP3 to modulate NLRP3 inflammasome activation.
# [3] = ovarian ageing mouse model; format: in vivo, mice
# From the text: as §1
# The second model used to evaluate the effect of C3 was related to ovarian aging. The reason behind this is that NLRP1 and NLRP3 is over-expressed during ovarian ageing (Figure 15).
# For this, the inventors used 9-month-old adult mice to which C3 was administered for one month.
# [4] = 18-month-old mice, 10 mg/Kg/day i.p., over 4 weeks, vs vehicle, Figure 10
# [5] = ageing mice, 10 mg/Kg/day i.p., Figure 12
# [6] = microscopic liver sections, Figure 12
# [7] = old mice, 10 mg/Kg/day i.p., Figure 11
# [8] = 9-month-old mice, administered for one month, Figure 13
# [9] = histological staining, vs vehicle, Figure 14
# T1 sequence (Q96P20 whole entry): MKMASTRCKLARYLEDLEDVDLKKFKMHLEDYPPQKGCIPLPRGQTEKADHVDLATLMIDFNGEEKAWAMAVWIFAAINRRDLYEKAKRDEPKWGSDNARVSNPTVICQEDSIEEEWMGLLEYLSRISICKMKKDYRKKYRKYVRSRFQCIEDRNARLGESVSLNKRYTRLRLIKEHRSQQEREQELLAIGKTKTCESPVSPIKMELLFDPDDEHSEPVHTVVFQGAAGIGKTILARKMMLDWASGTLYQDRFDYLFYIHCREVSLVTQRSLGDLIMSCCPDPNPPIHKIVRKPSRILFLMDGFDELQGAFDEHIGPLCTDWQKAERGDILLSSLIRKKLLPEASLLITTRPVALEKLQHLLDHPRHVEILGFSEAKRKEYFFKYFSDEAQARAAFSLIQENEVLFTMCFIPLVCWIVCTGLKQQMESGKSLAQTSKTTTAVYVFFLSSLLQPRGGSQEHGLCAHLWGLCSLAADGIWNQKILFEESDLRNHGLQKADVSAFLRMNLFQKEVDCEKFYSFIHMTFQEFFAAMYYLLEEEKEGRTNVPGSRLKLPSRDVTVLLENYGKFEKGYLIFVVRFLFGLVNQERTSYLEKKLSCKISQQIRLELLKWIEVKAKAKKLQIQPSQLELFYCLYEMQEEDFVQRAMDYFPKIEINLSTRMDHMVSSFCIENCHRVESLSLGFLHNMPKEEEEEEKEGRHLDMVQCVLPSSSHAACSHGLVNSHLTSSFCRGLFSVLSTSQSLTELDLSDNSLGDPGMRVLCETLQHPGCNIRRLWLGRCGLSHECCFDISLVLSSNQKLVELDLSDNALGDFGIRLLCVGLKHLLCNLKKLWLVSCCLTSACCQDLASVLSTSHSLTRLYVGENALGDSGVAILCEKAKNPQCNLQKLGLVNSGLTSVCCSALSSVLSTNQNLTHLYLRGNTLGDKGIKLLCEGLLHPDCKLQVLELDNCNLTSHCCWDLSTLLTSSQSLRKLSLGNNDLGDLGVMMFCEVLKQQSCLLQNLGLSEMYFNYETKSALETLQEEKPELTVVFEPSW
# T3 sequence (Q96P20 whole entry): as above
smiles,measurement,setting,value
"CS(=O)(=O)NCc1cccc2ccccc12 [Compound C3, N-(naphthalen-1-ylmethyl) methanesulfonamide]",abdominal fat,[1]; [4],significantly reduced
same,body weight,[1]; [4],significantly reduced
same,NLRP1 protein expression,[1]; [5],significant reduction
same,NLRP3 protein expression,[1]; [5],significant reduction
same,serum IL1β levels,[1]; [5],significant reduction
same,age-associated hepatic fibrosis,[1]; [6],significantly reduced
same,age-associated hepatic steatosis,[1]; [6],significantly reduced
same,glucose levels upon glucose challenges at the OGTT peak (>15 min),"[1]; old mice, 10 mg/Kg/day i.p., vs control, Figure 11",significantly decreased
same,serum leptin/adiponectin,[1]; [7],reduced
same,serum levels of adiponectin,[1]; [7],reduced
same,serum levels of leptin,[1]; [7],reduced
same,expression of NLRP3,"NLRP3; LPS + ATP induction, dose-dependent, Figure 3",inhibited the expression
same,expression of the inflammasome activation-associated protein IL-1β,"NLRP3; LPS+ATP or VbP induction, dose-dependent, Figure 3",reduced the expression
same,"inhibitory capacity (expression of NLRP1, NLRP3, IL-1β and IL-18)","NLRP3; compared to MCC950 and C5, Figure 5 and Figure 8",increased inhibitory capacity
same,expression of NLRP1,NLRP1,inhibited the expression
same,cell viability,THP-1 cell line,above 85%
same,"modulation of other inflammasome proteins such as AIM-2, NLRP2, NLRC3 or NLRC4",[2],did not result in the modulation
same,IC50,"NLRP3 inflammasome; Figure 4A, read-out: IC50 (IL-1β) release into the culture medium",5.38 nM
same,IC50,"NLRP3 inflammasome; Figure 4B, read-out: IC50 (IL-18) release into the culture medium",4450 nM
same,binding of NEK7 to NLRP3,NEK7 to NLRP3,inhibited the binding
same,AMH receptor,[3]; [8],increase
same,Follicle-stimulating hormone (FSH),[3]; [8],reduction
same,antimüllerian hormone (AMH),[3]; [8],significant increase
same,protein levels of active Caspase 1,[3]; [8],decreased
same,protein levels of active IL-1β,[3]; [8],decreased
same,improvement of the ovarian reserve by AMH hormone,"[3]; compared to NLRP1 KO and NLRP3 KO mice, Figure 15",significantly higher improvement
same,percentage of atretic follicles,[3]; [9],lower percentage
same,percentage of follicles,[3]; [9],higher percentage
"CS(=O)(=O)NCc1ccc(Cl)cc1 [Compound C4, N-(4-chlorobenzyl) methanesulfonamide]",IL-1β cytokine release,NLRP3 inflammasome,reduction
"O=S(=O)(Cc1ccc2ccccc2c1)NCc1ccccc1 [Compound C7, N-benzyl-1-(naphthalen-2-yl) methanesulfonamide]",IL-1β cytokine release,NLRP3 inflammasome,reduction
"COc1ccc(CNS(C)(=O)=O)cc1 [Compound C1, N-(4-methoxybenzyl) methanesulfonamide]",IL-1β cytokine release,NLRP3 inflammasome,reduction
"CS(=O)(=O)NCc1ccc2c(c1)OCO2 [Compound C2, N-(4,5-methylenedioxybenzyl) methanesulfonamide]",IL-1β cytokine release,NLRP3 inflammasome,reduction
